Laboratory results published in PubChem BioAssay (NCI).
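Results reflect a 48-hour exposure of cells in 96-well plates to compound at five concentrations. At the TGI there is no net growth.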

What was measured:
Experiment in all cases: growth of human tumour cells (NCI), 48 h
[1] = tested on: SF-295 CNS
[2] = tested on: MDA-MB-231 breast
[3] = tested on: MCF7 breast
[4] = tested on: 786-0 renal
[5] = tested on: COLO 205 colon
[6] = tested on: MOLT-4 leukemia
[7] = tested on: SF-539 CNS
[8] = tested on: NCI-H226 lung
[9] = tested on: HOP-92 NSCLC
[10] = tested on: RXF 393 renal
[11] = tested on: NCI-H522 lung

Compound | TGI [1] | TGI [2] | TGI [3] | TGI [4] | TGI [5] | TGI [6] | TGI [7] | TGI [8] | TGI [9] | TGI [10] | TGI [11]
CCOC(=O)c1c(SCCN2CCCC2)n(-c2ccccc2)c(=S)n(-c2ccccc2)c1=O | > 75.7 µM | 4.4 µM | 3.36 µM | 2.89 µM | 3.53 µM | 5.11 µM | 4.86 µM | 33.9 µM | 4.48 µM | 3.36 µM | 4.08 µM
COc1ccc(NC2Oc3cc4c(cc3C(c3cc(OC)c(OC)c(OC)c3)C2C)OCO4)cc1 (stereo not drawn) | 0.971 µM | > 57.4 µM | > 41.3 µM | > 81.1 µM | 2.96 µM | > 100 µM | 0.492 µM | 5.58 µM | 33.7 µM | > 100 µM | 2.45 µM
C=CC/C(C(=O)OC)=C(/C(=O)OC)N(CCC)CCC | > 100 µM | > 100 µM | > 100 µM | > 100 µM | > 100 µM | > 100 µM | > 100 µM | > 100 µM | > 100 µM | > 100 µM | > 100 µM
O=C1OC[C@@H]2Cc3c([nH]c4ccccc34)[C@@H](c3ccc(O)cc3)N12 | > 83.4 µM | > 83.4 µM | > 100 µM | > 100 µM | 40.9 µM | > 75.3 µM | > 74 µM | 80.1 µM | > 100 µM | 64.3 µM | 77.6 µM
CCN(CC)CCCn1c(=O)c2cccnc2n2c3c(=O)n(C)c(=O)n(C)c3nc12 | > 100 µM | > 100 µM | > 100 µM | > 100 µM | > 100 µM | > 100 µM | > 100 µM | > 100 µM | > 100 µM | > 100 µM | > 100 µM
N#Cc1c2c(c(Nc3ccc(F)cc3)n3c1nc1ccccc13)CCC2 | 18.7 µM | 11.3 µM | 16 µM | 3.25 µM | 14.1 µM | > 100 µM | 9.56 µM | 22.7 µM | 20.5 µM | 7.9 µM | 4.58 µM
CCOC(=O)C1C(=O)CC(O)(c2ccccc2)C(C(=O)OCC)C1c1ccc(OC)cc1 (stereo not drawn) | 17.5 µM | > 100 µM | > 100 µM | > 59.2 µM | 47.9 µM | > 82 µM | 40.9 µM | > 100 µM | > 82 µM | 50.5 µM | 38.2 µM
CCC[C@H](C)[C@H]1NC(=O)[C@@H](NC(=O)[C@@H](CC(C)C)N(C)C(=O)C2CCCN2C(=O)[C@H](C)O)[C@@H](C)OC(=O)[C@H](CC(C)C)N(C)C(=O)[C@@H]2CCCN2C(=O)[C@H](CC(C)C)NC(=O)[C@@H](C)C(=O)[C@H](C(C)C)OC(=O)C[C@@H]1O (stereo partly drawn) | 0.0536 µM | 0.00855 µM | 0.25 µM | 0.0157 µM | < 0.0025 µM | 1.58 µM | 0.0102 µM | 0.0622 µM | 0.0093 µM | 0.016 µM | 0.00609 µM
CN1CN(c2ccccc2)C2(CCN(CCCC3(c4cccs4)OCCO3)CC2)C1=O | > 100 µM | > 100 µM | > 100 µM | > 100 µM | > 100 µM | > 100 µM | > 100 µM | > 100 µM | > 100 µM | > 100 µM | > 100 µM
Cc1cc(C)c2c(n1)S(=O)(=O)N(CCCN1CCN(c3cccc(C(F)(F)F)c3)CC1)/C(=C(\O)c1ccc(Cl)cc1)C2=O | 14.2 µM | 18.7 µM | 14 µM | 15.4 µM | 3.58 µM | 4 µM | 17.1 µM | 8.61 µM | 8.35 µM | 19.1 µM | 14.8 µM
COC(=O)CCCC(=O)C(=Nc1c(Cl)cccc1Cl)NNc1ccc(Cl)cc1 | > 100 µM | > 100 µM | > 100 µM | > 100 µM | 82.4 µM | 76.6 µM | > 100 µM | > 100 µM | > 100 µM | > 68.2 µM | > 85.7 µM
O=C1C(C=NCCc2c[nH]c3ccccc23)C(C(F)(F)F)=NN1c1nc2ccccc2s1 (stereo not drawn) | 66.5 µM | > 100 µM | 57.2 µM | > 100 µM | 34 µM | 60.4 µM | 86.4 µM | 68 µM | 48.5 µM | 48.5 µM | 43.6 µM
O=c1nc2c(c(-c3cccc(Cl)c3)[nH]1)COC/C2=C\c1cccc(Cl)c1 | > 100 µM | > 100 µM | > 100 µM | > 100 µM | > 100 µM | > 100 µM | > 100 µM | > 100 µM | > 100 µM | > 100 µM | > 100 µM
NCCCC(N)C(=O)O (stereo not drawn) | > 100 µM | > 100 µM | > 100 µM | > 100 µM | > 100 µM | > 100 µM | – | > 100 µM | > 100 µM | > 100 µM | > 100 µM
O=C(O)CNC(=O)c1ccc([As](=O)(O)O)cc1 | > 100 µM | > 100 µM | > 100 µM | > 100 µM | > 100 µM | > 100 µM | – | > 100 µM | > 100 µM | > 100 µM | > 100 µM
